Measured values taken from paper PMC4021102, “The onset of grapevine berry ripening is characterized by ROS accumulation and lipoxygenase-mediated membrane peroxidation in the skin” (BMC Plant Biology, 2014).

Molecular target: T1, PnLOXA (Vitis vinifera, UniProt D7SLA9)
T1 construct: gene VIT_06s0004g01510
Details: 0.1 mM substrate, pH 6.5, 25 °C; exclusively 13-product

T1 sequence (D7SLA9 entry or part of it): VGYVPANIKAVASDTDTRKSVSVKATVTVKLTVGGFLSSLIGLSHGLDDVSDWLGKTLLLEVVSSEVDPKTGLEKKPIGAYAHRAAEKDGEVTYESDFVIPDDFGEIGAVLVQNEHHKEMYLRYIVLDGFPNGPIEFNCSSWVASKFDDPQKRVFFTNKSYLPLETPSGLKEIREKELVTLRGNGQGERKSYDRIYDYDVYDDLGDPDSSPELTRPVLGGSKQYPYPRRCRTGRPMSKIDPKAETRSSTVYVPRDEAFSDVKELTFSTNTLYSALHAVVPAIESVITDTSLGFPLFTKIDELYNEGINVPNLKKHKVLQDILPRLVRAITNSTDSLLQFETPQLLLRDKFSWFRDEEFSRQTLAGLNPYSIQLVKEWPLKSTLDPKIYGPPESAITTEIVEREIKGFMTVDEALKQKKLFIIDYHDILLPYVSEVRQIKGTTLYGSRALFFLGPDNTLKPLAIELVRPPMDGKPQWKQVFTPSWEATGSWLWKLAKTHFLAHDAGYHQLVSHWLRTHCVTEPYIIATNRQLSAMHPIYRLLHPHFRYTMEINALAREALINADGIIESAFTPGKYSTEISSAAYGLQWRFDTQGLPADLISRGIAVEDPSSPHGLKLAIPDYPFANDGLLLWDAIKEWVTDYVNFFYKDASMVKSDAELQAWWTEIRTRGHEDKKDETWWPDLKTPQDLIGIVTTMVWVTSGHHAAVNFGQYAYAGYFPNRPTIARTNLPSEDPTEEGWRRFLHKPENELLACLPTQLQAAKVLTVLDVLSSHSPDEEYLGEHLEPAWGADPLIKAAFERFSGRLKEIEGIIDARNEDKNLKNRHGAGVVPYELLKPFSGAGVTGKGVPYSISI

With CC/C=C\C/C=C\C/C=C\CCCCCCCC(=O)O [α-linolenic acid] the “peroxidation product identified by ESI-MS/MS” value was “PnLOXA catalyzed the regiospecific peroxidation of α-linolenic acid to produce exclusively 13-HOTrE”.
